The text below walks through data of paper PMC9186412, “Rational Framework for the Design of Trp- and Arg-Rich Peptide Antibiotics Against Multidrug-Resistant Bacteria” (Frontiers in Microbiology, 2022).

Values after ≈ are worked out from the molar mass of the structure shown. Read-outs that look alike come from different tables or passages of the source. Where no end group is shown, it is not given here.

One data set deals with K. pneumoniae. Nature of the data set: microbe, parasite or virus in culture. In kind it is cell-based, Klebsiella pneumoniae. Particulars: 18 h. The procedure:
(§1) Bacterial clinical isolates, used for initial screening and in previous studies ([Deslouches et al., 2013]; [Lin et al., 2018]), were anonymously provided by the clinical microbiology laboratory of the University of Pittsburgh medical Center. The panel used for secondary screening was from [CDC (2013)] (Supplementary Table 3), with resistance profiles data. Bacteria are stored in lock-secured –80°C freezer and typically retrieved by obtaining single colonies on agar plates prior for subsequent liquid broth cultures. Suspensions of test bacteria were prepared from log phase of growth by diluting overnight cultures at 1:100 with fresh cation-adjusted MHB (MHB2, Millipore Sigma, United States) and incubating for additional 3–4 h. Bacteria were spun at 3,000 × g for 10 min and the pellet resuspended in test condition media (Millipore Sigma, United States) to determine bacterial turbidity using a Den-1B densitometer (Grant Instruments, United States) at 0.5 McFarland (unit of bacterial density) corresponding to […].
(§2) To examine antibacterial activity, we used minor modifications of a standard growth inhibition assay endorsed by the Clinical and Laboratory Standards Institute (CLSI), as previously described ([Deslouches et al., 2013]). Bacteria were incubated with each of the indicated peptides in MHB2. The bacterial cells were kept in an incubator for 18 h at 37°C, which is linked to a robotic system that feeds a plate reader every hour with one of 8 × 96-well plates. This set-up allows the collection of growth kinetic data at A 570 (absorbance at 570 nm) to examine growth inhibition in real time (BioTek Instruments, United States). […] The assays are typically repeated a second time. If the MIC is different, a third experimental trial is performed to confirm the MIC. To assess bactericidal properties of the peptide, the assay was modified by using 15% fetal bovine serum (FBS, for a more physiologically relevant test condition) mixed with 25% MHB2 and 60% PBS. Bacterial cells (colony forming unit/mL or CFU/mL) were enumerated after incubating treated bacteria for 3 h and plating serially diluted samples on broth agar medium at 37°C overnight. Minimum bactericidal concentration (MBC) was determined as the peptide concentration at which complete bacterial killing was observed. […] Data were analyzed using GraphPad Prism software.

In a further data set the test system is CD-1 mice. Nature of the data set: Mouse toxicity, maximum tolerated dose (IV). In kind it is in vivo. As to the method: For all animal experiments, we used the protocol #18071776 approved by the Institutional Animal Care and Use Committee (IACUC) of the University of Pittsburgh, which is consistent with the NIH guide for the care and use of laboratory animals. In a preliminary (pilot) experiment, female CD-1 mice (three per group) weighing about 20 g were injected different doses of peptides up to 45mpk via a lateral tail vein (IV) to determine an MTD (dose that results in no apparent morbidity or mortality). To confirm the MTD determined in the pilot study, CD-1 mice (seven per group) were randomized to receive a dose based on the preliminary MTD (IV) or PBS (100 μL). The animals were monitored for up to 7 days for morbidity and survival.

Another data set has as its system A. baumannii. Nature of the data set: microbe, parasite or virus in culture. In kind it is cell-based, Acinetobacter baumannii. The note with it: Acinetobacter baumannii, 18 h, MHB2, 18 h, 37°C. As to the method:
as §1, §2

The test system of the next data set is CDC AR isolates. Set-up: key: S (green), susceptible; I (blue), intermediate; R (red), resistant. The note with it: data provided by the CDC, ref CDC, cited from earlier work. The text has this:
Supplement Table_3.XLSX, sheet "CDC AR isolates profiles" | column: G(-) strains

A further data set has as its system P. aeruginosa. Nature of the data set: microbe, parasite or virus in culture. The format is cell-based, Pseudomonas aeruginosa. The note with it: Pseudomonas aeruginosa, 18 h, MHB2, 18 h, 37°C. The procedure:
as §1, §2

A further data set relates to E. coli. Nature of the data set: microbe, parasite or virus in culture. The note with it: Escherichia coli, 18 h, MHB2, 18 h, 37°C. In kind it is cell-based, Escherichia coli. The procedure: as §1, §2
In a further data set the test system is Enterobacter spp. Nature of the data set: microbe, parasite or virus in culture. In kind it is cell-based, Enterobacter spp (aerogenes, cloacae). Particulars: Enterobacter, 18 h, UPMC, MHB2, 18 h, 37°C. As to the method: as §1, §2
The test system of the next data set is E. Faecium. Description: microbe, parasite or virus in culture. The format is cell-based, Enterococcus Facium. Particulars: Enterococcus faecium, 18 h, MHB2, 18 h, 37°C. The procedure:
as §1, §2

Data set [1] deals with human red blood cells (RBCs). Particulars: at 16 μM; ref de Breij et al., 2018; cited from earlier work.
Data set [2] has as its system ESKAPE pathogens and Escherichia coli. The note with it: ESKAPE pathogens and. The procedure: Bacteria were incubated with each of the indicated peptides in MHB2. […] To assess bactericidal properties of the peptide, the assay was modified by using 15% fetal bovine serum (FBS, for a more physiologically relevant test condition) mixed with 25% MHB2 and 60% PBS. […] Data were analyzed using GraphPad Prism software.

For RRVVRRWRRVVRRWVRVWRRVVRR [E3], the % RBC lysis was 17%. In the data set on K. pneumoniae, this molecule yielded an MIC of 8 µM.
As for RRVWRWVRRVWRWVRR [E35], the % RBC lysis turned out to be 22%. Besides, in the data set on CD-1 mice (7 CD-1 mice, 30 mpk systemically, monitored up to 7 days), the morbidity and mortality entry was “no apparent morbidity and mortality”. Moreover, in the data set on CD-1 mice (CD-1 mice, tail vein (IV), pilot with doses up to 45 mg/kg), the “tolerated systemic dose (maximum tolerated dose, MTD)” value is listed as “up to 30 mpk”.
In the case of `CC(C)(O/N=C(\C(=O)N[C@@H]1C(=O)N2C(C(=O)[O-])=C(C[n+]3ccccc3)CS[C@H]12)c1csc(N)n1)C(=O)O` [Ceftazidime, reference compound], the MIC against A. baumannii (strain AB-A2, UPMC clinical strain, A570, confirmed by 2nd or 3rd trial) is 1 µM (≈ 0.547 µg/mL); in the data set on A. baumannii (strain AB-A3, UPMC), more than 16 µM; in the data set with A. baumannii (strain AB-F8, UPMC), more than 16 µM; with A. baumannii (strain AB-F9, UPMC), 2 µM (≈ 1.09 µg/mL); in the data set with P. aeruginosa (strain PA97-5, UPMC), 1 µM (≈ 0.547 µg/mL); in the data set with P. aeruginosa (strain PA129-5, UPMC) it was 2 µM (≈ 1.09 µg/mL). Also, the MIC against E. coli (strain Eco25922) was 1 µM (≈ 0.547 µg/mL); in the data set with E. coli (strain YDC107, UPMC), 4 µM (≈ 2.19 µg/mL); against E. coli (strain YDC337, UPMC), more than 16 µM; in the data set on E. coli (strain YDC748, UPMC), more than 16 µM; with Enterobacter spp (strain EA518 (aerogenes)), more than 16 µM; against Enterobacter spp (strain EA596 (aerogenes)) it was more than 16 µM. The MIC against Enterobacter spp (strain EC470 (cloacae)) is more than 16 µM; with Enterobacter spp (strain EC560 (cloacae)) it was more than 16 µM; against K. pneumoniae (Klebsiella pneumoniae, strain KP43816, MHB2, 18 h, 37°C), 1 µM (≈ 0.547 µg/mL); in the data set with K. pneumoniae (Klebsiella pneumoniae, strain KPA5 (colistin-resistant), UPMC, MHB2, 18 h, 37°C), 12 µM (≈ 6.56 µg/mL); against K. pneumoniae (Klebsiella pneumoniae, strain KPB3, UPMC, MHB2, 18 h, 37°C) it was 8 µM (≈ 4.37 µg/mL); against K. pneumoniae (Klebsiella pneumoniae, strain KPC3, UPMC, MHB2, 18 h, 37°C) it was more than 16 µM. Besides, the MIC was 8 µM (≈ 4.37 µg/mL) against E. Faecium (strain EF23614, UPMC) and more than 16 µM in the data set with E. Faecium (strain EF24670, UPMC). Further, the Antibiotic susceptibility profile entry is on record as “R” in the data set on CDC AR isolates (Acinetobacter baumannii AB273, CDC AR isolate); “R” in the data set on CDC AR isolates (Acinetobacter baumannii AB274, CDC AR isolate); “R” in the data set on CDC AR isolates (Acinetobacter baumannii AB275, CDC AR isolate); “R” in the data set with CDC AR isolates (Acinetobacter baumannii AB276, CDC AR isolate); “S” in the data set on CDC AR isolates (Enterobacter cloacae E62, CDC AR isolate); “S” in the data set on CDC AR isolates (Enterobacter cloacae E544, CDC AR isolate). In addition, the Antibiotic susceptibility profile entry in the data set on CDC AR isolates (Enterobacter cloacae E545, CDC AR isolate) is given as “S”; with CDC AR isolates (Enterobacter cloacae E546, CDC AR isolate), “S”; with CDC AR isolates (Escherichia coli EC541, CDC AR isolate), “S”; in the data set on CDC AR isolates (Escherichia coli EC543, CDC AR isolate) it was “S”; in the data set on CDC AR isolates (Escherichia coli EC544, CDC AR isolate), “S”; in the data set on CDC AR isolates (Escherichia coli EC549, CDC AR isolate), “S”. Further, the Antibiotic susceptibility profile result in the data set on CDC AR isolates (Klebsiella pneumoniae KP542, CDC AR isolate) is listed as “R”; with CDC AR isolates (Klebsiella pneumoniae KP548, CDC AR isolate), “R”; with CDC AR isolates (Klebsiella pneumoniae KP550, CDC AR isolate), “R”; in the data set on CDC AR isolates (Klebsiella pneumoniae KP552, CDC AR isolate), “S”; with CDC AR isolates (Pseudomonas aeruginosa PA229, CDC AR isolate), “R”; in the data set on CDC AR isolates (Pseudomonas aeruginosa PA230, CDC AR isolate), “R”. Moreover, the Antibiotic susceptibility profile result is on record as “R” with CDC AR isolates (Pseudomonas aeruginosa PA231, CDC AR isolate); “S” with CDC AR isolates (Pseudomonas aeruginosa PA232, CDC AR isolate); “R” in the data set on CDC AR isolates (Pseudomonas aeruginosa PA239, CDC AR isolate).
Turning to “Ac-LKRVWKRVFKLLKRYWRQLKKPVR-NH2 [SAAP-148]”, the RBC lysis entry in data set [1] is on record as “moderate RBC lysis”.
Take `CC(C)C[C@H](NC(=O)[C@H](Cc1ccccc1)NC(=O)[C@@H]1CCCN1C(=O)[C@H](Cc1c[nH]c2ccccc12)NC(=O)[C@H](Cc1c[nH]c2ccccc12)NC(=O)[C@H](Cc1c[nH]c2ccccc12)NC(=O)[C@@H]1CCCN1C(=O)[C@H](Cc1ccccc1)NC(=O)[C@H](CCCNC(=N)N)NC(=O)[C@H](CCCNC(=N)N)NC(=O)[C@@H](N)C(C)C)C(=O)N[C@@H](CCCNC(=N)N)C(=O)N[C@@H](CCCNC(=N)N)C(=O)O` [tritrpticin]: the “mean MIC” value in data set [2] is more than 10 µM.
The molecule H-RWVRRVRRVWRRVRRVVRRW-OH [E7] came in with a % RBC lysis of 5%.
